Earlier results in PubChem BioAssay AID1259409 (Chemical Carcinogenesis Research Information System (CCRIS), 2018).

System: rodent chemically induced tumor inhibition, incidence and multiplicity
Assay: CCRIS tumor inhibitor studies

CC(=O)Oc1ccccc1C(=O)O
tumour outcome (control, treated, inhibition, significance) (Carcinogen: AZOXYMETHANE, 25843-45-2, Dose [Inhibitor]: 0, 250 PPM IN DIET FOR 34 WK BEGINNING 1 WK POST LAST CARCINOGEN DOSE (STUDY DURATION: 49 WK), Route [Inhibitor]: ORAL, Species: RAT, Strain/Sex: F344/MALE, Target Tissue: Type of Lesion: COLON: ADENOCARCINOMA, Dose [Carcinogen]: 12 MG/KG BW IN 0.9% SALINE TWICE, Promoter: CHOLIC ACID, 81-25-4): 26%, 19%, 27%, not significant | tumour outcome (control, treated, inhibition, significance) (Carcinogen: AZOXYMETHANE, 25843-45-2, Dose [Inhibitor]: 0, 250 PPM IN DIET FOR 34 WK BEGINNING 1 WK POST LAST CARCINOGEN DOSE (STUDY DURATION: 49 WK), Route [Inhibitor]: ORAL, Species: RAT, Strain/Sex: F344/MALE, Target Tissue: Type of Lesion: COLON: ADENOMA, Dose [Carcinogen]: 12 MG/KG BW IN 0.9% SALINE TWICE, Promoter: CHOLIC ACID, 81-25-4): 81%, 77%, 5%, not significant | tumour outcome (control, treated, inhibition, significance) (Carcinogen: AZOXYMETHANE, 25843-45-2, Dose [Inhibitor]: 0, 250 PPM IN DIET FOR 34 WK BEGINNING 1 WK POST LAST CARCINOGEN DOSE (STUDY DURATION: 49 WK), Route [Inhibitor]: ORAL, Species: RAT, Strain/Sex: F344/MALE, Target Tissue: Type of Lesion: SMALL INTESTINE: ADENOCARCINOMA, Dose [Carcinogen]: 12 MG/KG BW IN 0.9% SALINE TWICE, Promoter: CHOLIC ACID, 81-25-4): 23%, 23%, 0%, not significant | tumour outcome (control, treated, inhibition, significance) (Carcinogen: AZOXYMETHANE, 25843-45-2, Dose [Inhibitor]: 0, 250 PPM IN DIET FOR 34 WK BEGINNING 1 WK POST LAST CARCINOGEN DOSE (STUDY DURATION: 49 WK), Route [Inhibitor]: ORAL, Species: RAT, Strain/Sex: F344/MALE, Target Tissue: Type of Lesion: SMALL INTESTINE: ADENOMA, Dose [Carcinogen]: 12 MG/KG BW IN 0.9% SALINE TWICE, Promoter: CHOLIC ACID, 81-25-4): 17%, 23%, -35%, not significant | tumour outcome (control, treated, inhibition, significance) (Carcinogen: AZOXYMETHANE, 25843-45-2, Dose [Inhibitor]: 0, 400 PPM IN DIET BEGINNING 2 WK PRIOR TO CARCINOGEN TREATMENT AND CONTINUING FOR 52 WK (STUDY DURATION: 54 WK), Route [Inhibitor]: ORAL, Species: RAT, Strain/Sex: F344/MALE, Target Tissue: Type of Lesion: COLON: ADENOCARCINOMA, Dose [Carcinogen]: 15 MG/KG BW 1/WK FOR 2 WK, Promoter: NONE USED): 78%, 47%, 40%, p<0.01 | tumour outcome (control, treated, inhibition, significance) (Carcinogen: DIMETHYLHYDRAZINE HYDROCHLORIDE, 306-37-6, Dose [Inhibitor]: 0, 5 MG/KG 1/D 5D/WK BY GAVAGE AND SAME DOSE IN DIET 2 D/WK FOR 18 WK (STUDY DURATION: 18 WK), Route [Inhibitor]: GAVAGE, ORAL, Species: RAT, Strain/Sex: WISTAR/MALE, Target Tissue: Type of Lesion: COLON: TUMOR, Dose [Carcinogen]: 30 MG/KG/WK FOR 18 WK, Promoter: NONE USED): 100%, 100%, 0%, not significant | tumour outcome (control, treated, inhibition, significance) (Carcinogen: DIMETHYLHYDRAZINE HYDROCHLORIDE, 306-37-6, Dose [Inhibitor]: 0, 30 MG/KG 1/D 5 D/WK BY GAVAGE AND THE SAME DOSE IN DIET 2 D/WK FOR 18 WK (STUDY DURATION: 18 WK), Route [Inhibitor]: GAVAGE, ORAL, Species: RAT, Strain/Sex: WISTAR/MALE, Target Tissue: Type of Lesion: COLON: TUMOR, Dose [Carcinogen]: 30 MG/KG/WK FOR 18 WK, Promoter: NONE USED): 100%, 50%, 50%, p<0.03 | tumour outcome (control, treated, inhibition, significance) (Carcinogen: DIMETHYLHYDRAZINE HYDROCHLORIDE, 306-37-6, Dose [Inhibitor]: 0, 60 MG/KG 1/D 5 D/WK BY GAVAGE AND THE SAME DOSE IN DIET 2 D/WK FOR 18 WK (STUDY DURATION: 18 WK), Route [Inhibitor]: GAVAGE, ORAL, Species: RAT, Strain/Sex: WISTAR/MALE, Target Tissue: Type of Lesion: COLON: TUMOR, Dose [Carcinogen]: 30 MG/KG/WK FOR 18 WK, Promoter: NONE USED): 100%, 25%, 75%, p<0.01 | tumour outcome (control, treated, inhibition, significance) (Carcinogen: N-BUTYL-(4-HYDROXYBUTYL)NITROSAMINE, 3817-11-6, Dose [Inhibitor]: 0, 1 G/KG IN DIET FROM WK 1 THROUGH WK 20 OF STUDY, Route [Inhibitor]: ORAL, Species: RAT, Strain/Sex: WISTAR/MALE, Target Tissue: Type of Lesion: BLADDER: TUMOR, Dose [Carcinogen]: 0.05% IN DRINKING WATER FROM WK 2 THROUGH WK 10 OF STUDY (STUDY DURATION: 32 WK), Promoter: NONE USED): 8/29 (28%), 1/29 (3%), 89%, p<0.05 | tumour outcome (control, treated, inhibition, significance) (Carcinogen: N-BUTYL-N-(4-HYDROXYBUTYL)NITROSAMINE, 3817-11-6, Dose [Inhibitor]: 0, 400 MG/KG DIET FOR 24 WK BEGINNING 1 WK PRIOR TO CARCINOGEN TREATMENT (STUDY DURATION: 24 WK), Route [Inhibitor]: ORAL, Species: MOUSE, Strain/Sex: BDF/MALE, Target Tissue: Type of Lesion: URINARY BLADDER: TRANSITIONAL CELL CARCINOMA, Dose [Carcinogen]: 7.5 MG 1/WK FOR 8 WK, Promoter: NONE USED): 22/75 (29%), 21/74 (28%), 3%, not significant | tumour outcome (control, treated, inhibition, significance) (Carcinogen: N-BUTYL-N-(4-HYDROXYBUTYL)NITROSAMINE, 3817-11-6, Dose [Inhibitor]: 0, 800 MG/KG DIET FOR 24 WK BEGINNING 1 WK PRIOR TO CARCINOGEN TREATMENT (STUDY DURATION: 24 WK), Route [Inhibitor]: ORAL, Species: MOUSE, Strain/Sex: BDF/MALE, Target Tissue: Type of Lesion: URINARY BLADDER: TRANSITIONAL CELL CARCINOMA, Dose [Carcinogen]: 7.5 MG 1/WK FOR 8 WK, Promoter: NONE USED): 22/75 (29%), 22/73 (30%), -3%, not significant | tumour outcome (control, treated, inhibition, significance) (Carcinogen: N-METHYL-N'-NITRO-N-NITROSOGUANIDINE, 70-25-7, Dose [Inhibitor]: FOLLOWING 8 WK CARCINOGEN/NACL REGIMEN, RATS FED DIETS SUPPLEMENTED WITH 1% ASPIRIN FOR 32 WK (STUDY DURATION: 40 WK), Route [Inhibitor]: ORAL, Species: RAT, Strain/Sex: WISTAR/MALE, Target Tissue: Type of Lesion: DUODENUM: ADENOCARCINOMA, Dose [Carcinogen]: 100 MG/L IN DRINKING WATER FOR 8 WK, AND SIMULTANEOUSLY FED DIET SUPPLEMENTED WITH 10% NACL, Promoter: SODIUM CHLORIDE, 7647-14-5): 3/39 (8%), 1/20 (5%), 38%, not significant | tumour outcome (control, treated, inhibition, significance) (Carcinogen: N-METHYL-N'-NITRO-N-NITROSOGUANIDINE, 70-25-7, Dose [Inhibitor]: FOLLOWING 8 WK CARCINOGEN/NACL REGIMEN, RATS FED DIETS SUPPLEMENTED WITH 1% ASPIRIN FOR 32 WK (STUDY DURATION: 40 WK), Route [Inhibitor]: ORAL, Species: RAT, Strain/Sex: WISTAR/MALE, Target Tissue: Type of Lesion: GLANDULAR STOMACH: ADENOCARCINOMA, Dose [Carcinogen]: 100 MG/L IN DRINKING WATER FOR 8 WK, AND SIMULTANEOUSLY FED DIET SUPPLEMENTED WITH 10% NACL, Promoter: SODIUM CHLORIDE, 7647-14-5): 3/39 (8%), 0/20 (0%), 100% not significant | tumour outcome (control, treated, inhibition, significance) (Carcinogen: N-METHYL-N'-NITRO-N-NITROSOGUANIDINE, 70-25-7, Dose [Inhibitor]: FOLLOWING 8 WK CARCINOGEN/NACL REGIMEN, RATS FED DIETS SUPPLEMENTED WITH 1% ASPIRIN FOR 32 WK (STUDY DURATION: 40 WK), Route [Inhibitor]: ORAL, Species: RAT, Strain/Sex: WISTAR/MALE, Target Tissue: Type of Lesion: GLANDULAR STOMACH: PRENEOPLASTIC HYPERPLASIA, Dose [Carcinogen]: 100 MG/L IN DRINKING WATER FOR 8 WK, AND SIMULTANEOUSLY FED DIET SUPPLEMENTED WITH 10% NACL, Promoter: SODIUM CHLORIDE, 7647-14-5): 5/39 (13%), 2/20 (10%), 23%, not significant | tumour outcome (control, treated, inhibition, significance) (Carcinogen: N-NITROSOBIS(2-OXOPROPYL)AMINE, 60599-38-4, Dose [Inhibitor]: 0, 1% IN DIET FOR 27 WK BEGINNING POST LAST CARCINOGEN DOSE (STUDY DURATION: 32 WK), Route [Inhibitor]: ORAL, Species: HAMSTER, Strain/Sex: SYRIAN/FEMALE, Target Tissue: Type of Lesion: PANCREAS: ADENOCARCINOMA, Dose [Carcinogen]: 10 MG/KG 1/WK FOR 5 WK, Promoter: NONE USED): 20/28 (71%), 10/19 (53%), 25%, not calculated | tumour outcome (control, treated, inhibition, significance) (Carcinogen: N-NITROSODIETHYLAMINE, 55-18-5, 2-ACETYLAMINOFLUORENE, 53-93-6, CARBON TETRACHLORIDE, 56-23-5, Carcinogen: N-NITROSODIETHYLAMINE, 55-18-5, 2-ACETYLAMINOFLUORENE, 53-93-6, CARBON TETRACHLORIDE, 56-23-5, Dose [Inhibitor]: 0, 0.75% IN DIET FOR 29 WK ADMINISTERED TO RATS BEARING PERSISTENT NODULES FOLLOWING CARCINOGEN TREATMENT (STUDY DURATIO, Route [Inhibitor]: ORAL, Species: RAT, Strain/Sex: F344/MALE, Target Tissue: Type of Lesion: LIVER: HEPATOCELLULAR CARCINOMA, Dose [Carcinogen]: 200 MG/KG BW DEN ONCE, 0.002% 2-AAF IN DIET FOR 2 WK, 1 MG/KG BW CCL4 MIDWAY IN 2-AAF TREATMENT, Dose [Carcinogen]: 200 MG/KG BW DEN ONCE, 0.002% 2-AAF IN DIET FOR 2 WK, 1 MG/KG BW CCL4 MIDWAY IN 2-AAF TREATMENT, Promoter: NONE USED): 7/8 (88%), 5/13 (38%), 57%, not significant | tumour outcome (control, treated, inhibition, significance) (Carcinogen: N-NITROSODIETHYLAMINE, 55-18-5, 2-ACETYLAMINOFLUORENE, 53-93-6, CARBON TETRACHLORIDE, 56-23-5, Carcinogen: N-NITROSODIETHYLAMINE, 55-18-5, 2-ACETYLAMINOFLUORENE, 53-93-6, CARBON TETRACHLORIDE, 56-23-5, Dose [Inhibitor]: 0, 0.75% IN DIET FOR 29 WK ADMINISTERED TO RATS BEARING PERSISTENT NODULES FOLLOWING CARCINOGEN TREATMENT (STUDY DURATIO, Route [Inhibitor]: ORAL, Species: RAT, Strain/Sex: F344/MALE, Target Tissue: Type of Lesion: LIVER: HEPATOCELLULAR CARCINOMA, Dose [Carcinogen]: 200 MG/KG BW DEN ONCE, 0.002% 2-AAF IN DIET FOR 2 WK, 1 ML/KG BW CCL4 MIDWAY IN 2-AAF TREATMENT, Dose [Carcinogen]: 200 MG/KG BW DEN ONCE, 0.002% 2-AAF IN DIET FOR 2 WK, 1 ML/KG BW CCL4 MIDWAY IN 2-AAF TREATMENT, Promoter: PHENOBARBITAL, 50-06-6): 12/12 (100%), 12/14 (86%), 14%, not significant | tumour outcome (control, treated, inhibition, significance) (Carcinogen: N-[4-(5-NITRO-2-FURYL)-2-THIAZOLYL]FORMAMIDE, 24554-26-5, Dose [Inhibitor]: 0.5% IN DIET FOR 2 D PRIOR TO AND FOR 7 D AFTER CARCINOGEN ADMINISTRATION (13 WK TOTAL) FOLLOWED BY 56 WK ON CONTROL DIE, Route [Inhibitor]: ORAL, Species: RAT, Strain/Sex: FISCHER/MALE, Target Tissue: Type of Lesion: URINARY BLADDER: CARCINOMA, Dose [Carcinogen]: 0.2% IN DIET SIMULTANEOUSLY WITH INHIBITOR FOR 12 WK, Promoter: NONE USED): 18/21 (86%), 10/27 (37%), 57%, p<0.001
